Data as given in US20260241049A1, “Radiopharmaceutical Compositions Targeting Glypican-3 and Uses Thereof” (RayzeBio, Inc., priority 2023, published 2026).
Starred links: 1 amine or outer side, 2 acyl side, 3 side chain; linkers in the order of their positions; H or OH if unused. Positions of bridges follow the written chain, without caps; N, C: chain ends. Non-standard residues stand in square brackets, D forms with d. Residues, ends and D or L forms follow the SMILES beside them. Groups on a side chain read outwards from the residue. *: point of attachment. Phe(4-(1-Me-pyrazol-4-yl)) = Cn1cc(-c2ccc(C[C@H](N)C(=O)O)cc2)cn1; NMeAla(isoquinolin-7-yl) = CN[C@@H](Cc1ccc2ccncc2c1)C(=O)O; DOTA = O=C(O)CN1CCN(CC(=O)O)CCN(CC(=O)*)CCN(CC(=O)O)CC1; Phe(4-CH2COOH) = N[C@@H](Cc1ccc(CC(=O)O)cc1)C(=O)O; 3Pal(6-Ph) = N[C@@H](Cc1ccc(-c2ccccc2)nc1)C(=O)O; Phe(4-COOH) = N[C@@H](Cc1ccc(C(=O)O)cc1)C(=O)O; Piperazinyl(4-CH2COOH) = O=C(O)CN1CCN(*)CC1; NMe2Nal = CN[C@@H](Cc1ccc2ccccc2c1)C(=O)O; AEF = NCCOc1ccc(C[C@H](N)C(=O)O)cc1; NMeI = CC[C@H](C)[C@H](NC)C(=O)O; NMeQ = CN[C@@H](CCC(N)=O)C(=O)O; NMehSer = CN[C@@H](CCO)C(=O)O; NMeK = CN[C@@H](CCCCN)C(=O)O; NMeDap = CN[C@@H](CN)C(=O)O; NMeC = CN[C@@H](CS)C(=O)O; Carboxymethyl = O=C(O)C*; CO = O=C([*:1])[*:2]

Biological target: Human Glypican3-Fc (Homo sapiens, UniProt P51654)
Assay: SPR binding to Glypican-3, Method B-3 (Glypican3-Fc captured on Protein A chip, 5-point dilution series)
Settings: SPR method B-3
Protocol: A Protein A sensor chip (Cytiva) was inserted into a Biacore T200 (Cytiva), priming was performed three times with a running buffer: HBS-P+, pH 7.4 (Cytiva), and equilibration was carried out at a flow rate of 30 μL/min. Glypican3-Fc was allowed to react for 60 seconds at a flow rate of 10 μL/min. After capturing human Glypican3-Fe, a peptide solution prepared to 10 mM in DMSO solution was diluted with a running buffer to a final concentration of 10 μM. After that, 5 serial dilution series (100 nM, 50 nM, 25 nM, 10 nM, 5 nM) of peptide solutions were prepared. Using the above samples, peptide kinetics for Glypican3 was obtained by SPR measurement. Kinetics evaluation of Glypican3 was performed by SPR measurements at a flow rate of 10 LL/min, setting the association time to 120 seconds and the disassociation time to 600 seconds.
The obtained data by Method B-1, Method B-2, Method B-3 and Method B-4 were analyzed by follow. Single Cycle Kinetics was used as the kinetics evaluation model, and curve fitting was performed using Biacore T200 Evaluation Software Version 3.0 (Cytiva).

SMILES | Kd
CC[C@H](C)[C@@H]1NC(=O)[C@H](Cc2ccc(C(=O)O)cc2)NC(=O)[C@H](CCC(N)=O)N(C)C(=O)[C@H](CC(=O)O)NC(=O)[C@H](CCC(N)=O)N(C)C(=O)[C@H](CCC(N)=O)N(C)C(=O)CSC[C@@H](C(N)=O)N(C)C(=O)[C@H](Cc2ccc(-c3cnn(C)c3)cc2)NC(=O)CNC(=O)[C@H](Cc2ccc3ccccc3c2)N(C)C(=O)[C@H](Cc2ccc(OCCN)cc2)NC(=O)[C@H]([C@@H](C)CC)NC1=O [Conjugate 2-53] ({CH2CO}-[NMeQ][NMeQ]D[NMeQ][Phe(4-COOH)]II[AEF][NMe2Nal]G[Phe(4-(1-Me-pyrazol-4-yl))][NMeC]-NH2; thioether N-12) | 1 nM
CC[C@H](C)[C@@H]1NC(=O)[C@H]([C@@H](C)OC)NC(=O)[C@H](Cc2ccc(C(=O)O)cc2)NC(=O)[C@H](CCC(N)=O)N(C)C(=O)[C@H](CC(=O)O)NC(=O)[C@H](CCOC)N(C)C(=O)[C@H](CCCCNC(=O)CN2CCN(CC(=O)O)CCN(CC(=O)O)CCN(CC(=O)O)CC2)N(C)C(=O)CSC[C@@H](C(N)=O)N(C)C(=O)[C@H](Cc2ccc(-c3ccccc3)nc2)NC(=O)CNC(=O)[C@H](Cc2ccc3ccncc3c2)N(C)C(=O)[C@H](Cc2ccc(OCC(=O)O)cc2)NC1=O [Lu-C-63] ({CH2CO}-[NMeK](DOTA)[NMehSer](Me)D[NMeQ][Phe(4-COOH)]T(Me)IY(Carboxymethyl)[NMeAla(isoquinolin-7-yl)]G[3Pal(6-Ph)][NMeC]-NH2; thioether N-12) | 1.6 nM
CC[C@H](C)[C@@H]1NC(=O)[C@H]([C@@H](C)OC)NC(=O)[C@H](Cc2ccc(NCC(=O)O)nc2)NC(=O)[C@H](CNC(=O)N2CCN(CC(=O)O)CC2)N(C)C(=O)[C@H](CC(=O)O)NC(=O)[C@H](CCCCNC(=O)N2CCN(CC(=O)O)CC2)N(C)C(=O)[C@H](CCCCN)N(C)C(=O)CSC[C@@H](C(N)=O)N(C)C(=O)[C@H](Cc2ccc(-c3ccccc3)nc2)NC(=O)CNC(=O)[C@H](Cc2ccc3ccncc3c2)N(C)C(=O)[C@H](Cc2ccc(OCC(=O)O)cc2)NC1=O [Conjugate 2-30] | 6.6 nM
CC[C@H](C)[C@@H]1NC(=O)[C@H](Cc2ccc(C(=O)O)cc2)NC(=O)[C@H](CCC(N)=O)N(C)C(=O)[C@H](CCC(N)=O)NC(=O)[C@H]([C@@H](C)CC)N(C)C(=O)[C@H](CCCCN)N(C)C(=O)CSC[C@@H](C(N)=O)N(C)C(=O)[C@H](Cc2ccc(-c3cnn(C)c3)cc2)NC(=O)CNC(=O)[C@H](Cc2ccc3ccccc3c2)N(C)C(=O)[C@H](Cc2ccc(C(=O)O)cc2)NC(=O)[C@H]([C@@H](C)CC)NC1=O [Conjugate 2-46] ({CH2CO}-[NMeK][NMeI]Q[NMeQ][Phe(4-COOH)]II[Phe(4-COOH)][NMe2Nal]G[Phe(4-(1-Me-pyrazol-4-yl))][NMeC]-NH2; thioether N-12) | 0.2 nM
CC[C@H](C)[C@@H]1NC(=O)[C@H]([C@@H](C)OC)NC(=O)[C@H](Cc2ccc(C(=O)O)cc2)NC(=O)[C@H](CNC(=O)N2CCN(CC(=O)O)CC2)N(C)C(=O)[C@H](CC(=O)O)NC(=O)[C@H](CCCCNC(=O)N2CCN(CC(=O)O)CC2)N(C)C(=O)[C@H](CCCCN)N(C)C(=O)CSC[C@@H](C(N)=O)N(C)C(=O)[C@H](Cc2ccc(-c3ccccc3)nc2)NC(=O)CNC(=O)[C@H](Cc2ccc3ccncc3c2)N(C)C(=O)[C@H](Cc2ccc(OCC(=O)O)cc2)NC1=O [Conjugate 2-29] | 1 nM
CC[C@H](C)[C@@H]1NC(=O)[C@H](Cc2ccc(C(=O)O)cc2)NC(=O)[C@H](CCC(N)=O)N(C)C(=O)[C@H](CC(=O)O)NC(=O)[C@H](CCOC)N(C)C(=O)[C@H](CCCCN)N(C)C(=O)CSC[C@@H](C(N)=O)N(C)C(=O)[C@H](Cc2ccc(-c3ccccc3)nc2)NC(=O)CNC(=O)[C@H](Cc2ccc3ccccc3c2)N(C)C(=O)[C@H](Cc2ccc(CC(=O)O)cc2)NC(=O)[C@H]([C@@H](C)CC)NC1=O [Conjugate 2-47] ({CH2CO}-[NMeK][NMehSer](Me)D[NMeQ][Phe(4-COOH)]II[Phe(4-CH2COOH)][NMe2Nal]G[3Pal(6-Ph)][NMeC]-NH2; thioether N-12) | 0.2 nM
CC[C@H](C)[C@@H]1NC(=O)[C@H]([C@@H](C)OC)NC(=O)[C@H](Cc2ccc(C(=O)O)cc2)NC(=O)[C@H](CCC(N)=O)N(C)C(=O)[C@H](CC(=O)O)NC(=O)[C@H]([C@@H](C)CC)N(C)C(=O)[C@H](CCCCN)N(C)C(=O)CSC[C@@H](C(N)=O)N(C)C(=O)[C@H](Cc2ccc(-c3ccccc3)nc2)NC(=O)CNC(=O)[C@H](Cc2ccc3ccncc3c2)N(C)C(=O)[C@H](Cc2ccc(OCC(=O)O)cc2)NC1=O [Conjugate 2-26] ({CH2CO}-[NMeK][NMeI]D[NMeQ][Phe(4-COOH)]T(Me)IY(Carboxymethyl)[NMeAla(isoquinolin-7-yl)]G[3Pal(6-Ph)][NMeC]-NH2; thioether N-12) | 0.3 nM
CC[C@H](C)[C@@H]1NC(=O)[C@H]([C@@H](C)OC)NC(=O)[C@H](Cc2ccc(C(=O)O)cc2)NC(=O)[C@H](CCCCNC(=O)N2CCN(CC(=O)O)CC2)N(C)C(=O)[C@H](CC(=O)O)NC(=O)[C@H](CCCCNC(=O)N2CCN(CC(=O)O)CC2)N(C)C(=O)[C@H](CCCCN)N(C)C(=O)CSC[C@@H](C(N)=O)N(C)C(=O)[C@H](Cc2ccc(-c3ccccc3)nc2)NC(=O)CNC(=O)[C@H](Cc2ccc3ccncc3c2)N(C)C(=O)[C@H](Cc2ccc(OCC(=O)N3CCN(CC(=O)O)CC3)cc2)NC1=O [Conjugate 2-32] | 1.8 nM
CC[C@H](C)[C@@H]1NC(=O)[C@H]([C@@H](C)OC)NC(=O)[C@H](Cc2ccc(C(=O)O)cc2)NC(=O)[C@H](CNC(=O)N2CCN(CC(=O)O)CC2)N(C)C(=O)[C@H](CC(=O)O)NC(=O)[C@H](CCOC)N(C)C(=O)[C@H](CNC(=O)N2CCN(CC(=O)O)CC2)N(C)C(=O)CSC[C@@H](C(N)=O)N(C)C(=O)[C@H](Cc2ccc(-c3ccccc3)nc2)NC(=O)CNC(=O)[C@H](Cc2ccc3ccccc3c2)N(C)C(=O)[C@H](Cc2ccc(OCCN)cc2)NC1=O [Conjugate 2-33] ({CH2CO}-[NMeDap]([CO-Piperazinyl(4-CH2COOH)])[NMehSer](Me)D[NMeDap]([CO-Piperazinyl(4-CH2COOH)])[Phe(4-COOH)]T(Me)I[AEF][NMe2Nal]G[3Pal(6-Ph)][NMeC]-NH2; thioether N-12 (inferred)) | 0.3 nM
CC[C@H](C)[C@@H]1NC(=O)[C@H]([C@@H](C)OC)NC(=O)[C@H](Cc2ccc(C(=O)O)cc2)NC(=O)[C@H](CCC(N)=O)N(C)C(=O)[C@H](CC(=O)O)NC(=O)[C@H](CCOC)N(C)C(=O)[C@H](CCCCNC(=O)N2CCN(CC(=O)O)CC2)N(C)C(=O)CSC[C@@H](C(N)=O)N(C)C(=O)[C@H](Cc2ccc(-c3ccccc3)nc2)NC(=O)CNC(=O)[C@H](Cc2ccc3ccncc3c2)N(C)C(=O)[C@H](Cc2ccc(O)cc2)NC1=O [Conjugate 2-24] ({CH2CO}-[NMeK]([CO-Piperazinyl(4-CH2COOH)])[NMehSer](Me)D[NMeQ][Phe(4-COOH)]T(Me)IY[NMeAla(isoquinolin-7-yl)]G[3Pal(6-Ph)][NMeC]-NH2; thioether N-12) | 0.5 nM
CC[C@H](C)[C@@H]1NC(=O)[C@H](Cc2ccc(C(=O)O)cc2)NC(=O)[C@H](CCC(N)=O)N(C)C(=O)[C@H](CC(=O)O)NC(=O)[C@H](CCOC)N(C)C(=O)[C@H](CCCCN)N(C)C(=O)CSC[C@@H](C(N)=O)N(C)C(=O)[C@H](Cc2ccc(-c3cnn(C)c3)cc2)NC(=O)CNC(=O)[C@H](Cc2ccc3ccccc3c2)N(C)C(=O)[C@H](Cc2ccc(CC(=O)O)cc2)NC(=O)[C@H]([C@@H](C)CC)NC1=O [Conjugate 2-48] ({CH2CO}-[NMeK][NMehSer](Me)D[NMeQ][Phe(4-COOH)]II[Phe(4-CH2COOH)][NMe2Nal]G[Phe(4-(1-Me-pyrazol-4-yl))][NMeC]-NH2; thioether N-12) | 0.5 nM
